Test results reported in article PMC6651501, “Design, Synthesis and Biological Evaluation of Novel Osimertinib-Based HDAC and EGFR Dual Inhibitors” (Molecules, 2019).

Tests used:
[1] = system: A549; assay: In vitro anti-proliferative MTT assay; format: cell-based; settings: Homo sapiens, 72 h
[2] = system: PC-3; assay: In vitro anti-proliferative MTT assay; format: cell-based; settings: Homo sapiens, 72 h
[3] = system: HeLa; assay: In vitro anti-proliferative MTT assay; settings: Homo sapiens, 72 h, read-out: IC50 HeLa
Procedure: (§2) Cell proliferation assay was determined by the MTT (3-[4,5-dimethyl-2-thiazolyl]-2,5-diphenyl-2H-tetrazolium bromide) method. Briefly, cells were passaged the day before dosing into a 96-well plate, allowed to grow for 12 h, and then treated with different concentrations of compound for 72 h. A 0.5% MTT solution was added to each well. After incubation for another 4 h, formazan formed from MTT was extracted by adding 200 μL of DMSO. Absorbance was then determined using a microplate reader at 570 nm.

[4] = system: MDA-MB-231; assay: In vitro anti-proliferative MTT assay; settings: Homo sapiens, MDA-MB-231, 72 h, read-out: IC50 MDA-MB-231
Procedure: as §2

[5] = system: MDA-MB-468; assay: In vitro anti-proliferative MTT assay; settings: Homo sapiens, MDA-MB-468, 72 h, read-out: IC50 MDA-MB-468
Procedure: as §2

[6] = system: HT-29; assay: In vitro anti-proliferative MTT assay; settings: Homo sapiens, HT-29, 72 h, read-out: IC50 HT-29
Procedure: as §2

[7] = system: KG-1; assay: In vitro anti-proliferative MTT assay; settings: Homo sapiens, KG-1, 72 h, read-out: IC50 KG-1
Procedure: as §2

[8] = target: EGFR (T790M) (Homo sapiens, UniProt P00533, T790M); assay: In vitro EGFR inhibition, Kinase-Glo Plus luminescence kinase assay; format: biochemical; settings: for inhibition at 1 µM: 1 μM compound, read-out: EGFR (T790M) Inhibition Rate at 1 μM; for IC50: 10 µM ATP
Chain of EGFR (T790M) (P00533 25-1210 T790M): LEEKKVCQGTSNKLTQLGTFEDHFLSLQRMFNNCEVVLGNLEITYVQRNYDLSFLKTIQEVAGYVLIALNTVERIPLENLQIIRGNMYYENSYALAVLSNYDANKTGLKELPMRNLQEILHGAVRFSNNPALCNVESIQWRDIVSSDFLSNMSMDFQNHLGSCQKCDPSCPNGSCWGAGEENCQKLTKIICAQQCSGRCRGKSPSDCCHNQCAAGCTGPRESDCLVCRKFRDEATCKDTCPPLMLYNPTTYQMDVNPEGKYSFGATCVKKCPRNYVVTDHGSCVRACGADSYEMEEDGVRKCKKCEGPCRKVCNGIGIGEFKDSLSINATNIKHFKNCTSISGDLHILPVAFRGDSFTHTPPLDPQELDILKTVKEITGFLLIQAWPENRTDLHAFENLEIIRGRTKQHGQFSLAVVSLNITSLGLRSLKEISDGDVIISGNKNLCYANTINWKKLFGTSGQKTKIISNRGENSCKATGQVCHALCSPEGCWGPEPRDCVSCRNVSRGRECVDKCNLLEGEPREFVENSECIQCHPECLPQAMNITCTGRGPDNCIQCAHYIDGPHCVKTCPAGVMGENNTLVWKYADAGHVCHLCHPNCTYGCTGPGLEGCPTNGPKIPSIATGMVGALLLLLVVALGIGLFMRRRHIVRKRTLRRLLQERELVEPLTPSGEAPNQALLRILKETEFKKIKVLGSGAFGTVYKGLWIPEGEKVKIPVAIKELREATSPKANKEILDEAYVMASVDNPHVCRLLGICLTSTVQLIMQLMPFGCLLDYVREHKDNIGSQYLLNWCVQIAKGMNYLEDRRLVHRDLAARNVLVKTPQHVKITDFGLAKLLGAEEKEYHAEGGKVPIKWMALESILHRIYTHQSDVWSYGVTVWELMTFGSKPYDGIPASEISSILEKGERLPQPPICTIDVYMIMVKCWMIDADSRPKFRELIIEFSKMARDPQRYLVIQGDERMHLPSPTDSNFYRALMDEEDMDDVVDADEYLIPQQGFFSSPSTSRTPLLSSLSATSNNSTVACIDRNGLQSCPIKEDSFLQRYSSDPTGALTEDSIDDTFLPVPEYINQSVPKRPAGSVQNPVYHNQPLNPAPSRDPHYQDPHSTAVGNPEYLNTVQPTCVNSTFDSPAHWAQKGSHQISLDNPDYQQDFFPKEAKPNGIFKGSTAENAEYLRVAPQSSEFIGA
Procedure: (§1) The assay was performed using Kinase-Glo Plus luminescence kinase assay kit. All of the enzymatic reactions were conducted at 30 °C for 40 min. The 50 µL reaction mixture in assay buffer contained 10 µM ATP, EGFR kinases, and different concentrations of compounds. Kinase activity was measured by quantitating the amount of ATP remaining in solution following a kinase reaction. The luminescent signal from the assay is correlated with the amount of ATP present and is inversely correlated with the amount of kinase activity. The IC50 values were calculated using nonlinear regression with normalized dose−response fit using Prism GraphPad software (GraphPad Software, San Diego, CA, USA).

[9] = system: HDAC (HeLa cell nuclear extract, mainly contains HDAC1 and 2); assay: In vitro HDACs inhibition fluorescent assay (HeLa cell nuclear extract); settings: read-out: HDAC IC50; HeLa cell nuclear extract as enzyme source
Procedure: The HDAC inhibitory activities of all the target compounds were evaluated using HeLa cell nuclear extract (mainly contains HDAC1 and 2) as enzyme source.
In brief, 10 μL of HeLa cell nuclear extract was mixed with different concentrations of tested compound (50 μL). […] The inhibition ratios were calculated from the fluorescence intensity readings of tested wells relative to those of control wells, and the IC50 values were calculated using a regression analysis of the concentration/inhibition data.

[10] = target: EGFR (WT) (Homo sapiens, UniProt P00533); assay: In vitro EGFR inhibition, Kinase-Glo Plus luminescence kinase assay; format: biochemical; settings: 10 µM ATP
Chain of EGFR (WT) (P00533 25-1210): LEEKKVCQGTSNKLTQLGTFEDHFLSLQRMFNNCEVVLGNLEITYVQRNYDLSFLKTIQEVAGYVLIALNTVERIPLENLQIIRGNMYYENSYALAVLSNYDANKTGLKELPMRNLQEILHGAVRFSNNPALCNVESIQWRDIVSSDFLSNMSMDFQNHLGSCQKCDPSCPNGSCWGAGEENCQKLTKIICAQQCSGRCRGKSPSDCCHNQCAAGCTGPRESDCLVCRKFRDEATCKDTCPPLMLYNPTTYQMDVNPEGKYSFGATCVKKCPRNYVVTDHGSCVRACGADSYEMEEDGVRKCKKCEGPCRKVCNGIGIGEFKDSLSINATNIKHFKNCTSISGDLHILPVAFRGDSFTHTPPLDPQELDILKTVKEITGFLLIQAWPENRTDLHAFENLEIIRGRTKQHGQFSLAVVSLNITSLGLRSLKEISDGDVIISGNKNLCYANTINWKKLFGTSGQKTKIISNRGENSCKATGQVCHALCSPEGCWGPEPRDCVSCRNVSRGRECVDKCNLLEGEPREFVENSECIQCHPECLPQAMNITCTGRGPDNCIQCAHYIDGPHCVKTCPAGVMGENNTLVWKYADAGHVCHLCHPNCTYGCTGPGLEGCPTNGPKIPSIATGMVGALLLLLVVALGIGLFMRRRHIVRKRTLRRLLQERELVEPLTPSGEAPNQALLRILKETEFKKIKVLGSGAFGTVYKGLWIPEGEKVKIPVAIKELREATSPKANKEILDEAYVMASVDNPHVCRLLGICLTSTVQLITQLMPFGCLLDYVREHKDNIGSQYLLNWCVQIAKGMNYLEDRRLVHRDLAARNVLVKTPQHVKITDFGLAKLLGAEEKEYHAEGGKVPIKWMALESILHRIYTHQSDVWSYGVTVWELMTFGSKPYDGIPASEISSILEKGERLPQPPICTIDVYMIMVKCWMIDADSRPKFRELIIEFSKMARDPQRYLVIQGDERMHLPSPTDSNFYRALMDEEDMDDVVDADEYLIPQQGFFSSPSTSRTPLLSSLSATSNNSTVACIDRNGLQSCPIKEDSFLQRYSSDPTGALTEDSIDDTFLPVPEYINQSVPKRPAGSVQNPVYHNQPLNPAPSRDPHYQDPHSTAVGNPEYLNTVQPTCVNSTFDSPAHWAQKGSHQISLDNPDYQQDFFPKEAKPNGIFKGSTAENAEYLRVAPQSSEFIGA
Procedure: as §1

[11] = system: thirteen cancer-related kinases; assay: Kinases inhibition assay (Eurofins Cerep, LANCE detection); format: biochemical, human; settings: 100 nM compound, Figure 4
Procedure: Compound 9E was further tested against thirteen cancer-related kinases to characterize its protein kinase selective profile.
The kinase inhibition assays were performed by Eurofins Cerep Corporation in France. In brief, evaluation of the effects of compounds on the activity of the human kinases was quantified by measuring the phosphorylation of the corresponding substrate using human recombinant enzymes and the LANCE detection method.

[12] = target: LSD1 (Homo sapiens, UniProt O60341); assay: Amplex red coupled LSD1 inhibition assay; format: biochemical; settings: 10 μM compound
Procedure: Lysine specific demethylase 1 (LSD1, also known as KDM1A) is a kind of epigenetic eraser, which catalyzes the oxidative demethylation of histone 3 methyllysine 4 (H3K4me1) and histone 3 dimethyllysine 4 (H3K4me2). It has been reported that LSD1 is overexpressed in various cancer cells and tissues, and regarded as a potential anticancer target.
Amplex red coupled LSD1 inhibition assay was carried out following reported method. In brief, the compounds were incubated with the recombinant LSD1 and H3K4me2. After that, the fluorescence was measured at excitation wavelength 530 nm and emission wavelength 590 nm in order to evaluate the inhibition rate of the candidate compound.

[13] = target: T1, BRD4 (BD1) (Homo sapiens, UniProt O60885); assay: BRD4 inhibition assay (TR-FRET); format: binding; settings: 1 μM compound
T1 construct: using the recombinant BRD4 (BD1) and its corresponding ligand (BET)
Procedure: The assay was performed by TR-FRET technology using the recombinant BRD4 (BD1) and its corresponding ligand (BET). The TR-FRET signal from the assay is correlated with the amount of ligand binding to the bromodomain. All of the binding reactions were conducted at room temperature. The 20 µL reaction mixture in assay buffer contained bromodomains, BET ligand and the indicated amount of inhibitor. For the negative control (blank), 5 µL of the assay buffer was added instead of the BET ligand. The reaction mixture was incubated for 120 min, then TR-FRET signal was measured using Tecan Infinite M1000 plate reader (Tecan, Männedorf, Switzerland).

Row | Compound | IC50 [1] | IC50 [3] | IC50 [4] | IC50 [5] | IC50 [6] | IC50 [7] | inhibition at 1 µM [8] | melting point | IC50 [9] | other results
1 | C=CC(=O)Nc1cc(Nc2nccc(-c3cn(C)c4ccccc34)n2)c(OC)cc1N(C)CCN(C)C [AZD9291, osimertinib] | 1970 nM | 3.27 µM | 3540 nM | 1300 nM | 870 nM | 530 nM | – | – | – | IC50 [2]: 1230 nM
2 | Cn1cc(-c2ccnc(Nc3ccc(C(=O)NCCC(=O)NO)cc3)n2)c2ccccc21 [Compound 5A, N-(3-(hydroxyamino)-3-oxopropyl)-4-((4-(1-methyl-1H-indol-3-yl)pyrimidin-2-yl)amino) benzamide] | – | – | – | – | – | – | 36% | 164 to 167 °C | – | –
3 | Cn1cc(-c2ccnc(Nc3ccc(C(=O)NCCCC(=O)NO)cc3)n2)c2ccccc21 [Compound 5B, N-(4-(hydroxyamino)-4-oxobutyl)-4-((4-(1-methyl-1H-indol-3-yl)pyrimidin-2-yl)amino) benzamide] | – | – | – | – | – | – | 34% | 165 to 168 °C | – | –
4 | Cn1cc(-c2ccnc(Nc3ccc(C(=O)NCCCCC(=O)NO)cc3)n2)c2ccccc21 [Compound 5C, N-(5-(hydroxyamino)-5-oxopentyl)-4-((4-(1-methyl-1H-indol-3-yl)pyrimidin-2-yl)amino) benzamide] | – | – | – | – | – | – | 42% | 144 to 147 °C | 462 nM | –
5 | Cn1cc(-c2ccnc(Nc3ccc(C(=O)NCCCCCC(=O)NO)cc3)n2)c2ccccc21 [Compound 5D, N-(6-(hydroxyamino)-6-oxohexyl)-4-((4-(1-methyl-1H-indol-3-yl)pyrimidin-2-yl)amino) benzamide] | 3560 nM | 4.06 µM | 1160 nM | 660 nM | 2940 nM | 1470 nM | 35% | 168 to 170 °C | 23 nM | –
6 | Cn1cc(-c2ccnc(Nc3ccc(C(=O)NCCCCCCC(=O)NO)cc3)n2)c2ccccc21 [Compound 5E, N-(7-(hydroxyamino)-7-oxoheptyl)-4-((4-(1-methyl-1H-indol-3-yl)pyrimidin-2-yl)amino) benzamide] | 2400 nM | 2.79 µM | 660 nM | 330 nM | 1990 nM | 520 nM | 44% | 161 to 163 °C | 105 nM | IC50 [8]: 1.2 µM; IC50 [10]: 3.2 µM; IC50 [2]: 2250 nM
7 | COc1cc(NC(=O)CCC(=O)NO)ccc1Nc1nccc(-c2cn(C)c3ccccc23)n1 [Compound 9A, N^1-hydroxy-N^4-(3-methoxy-4-((4-(1-methyl-1H-indol-3-yl)pyrimidin-2-yl)amino)phenyl) succinimide] | – | – | – | – | – | – | 38% | 151 to 153 °C | – | –
8 | COc1cc(NC(=O)CCCC(=O)NO)ccc1Nc1nccc(-c2cn(C)c3ccccc23)n1 [Compound 9B, N^1-hydroxy-N^5-(3-methoxy-4-((4-(1-methyl-1H-indol-3-yl)pyrimidin-2-yl)amino)phenyl) glutaramide] | – | – | – | – | – | – | 37% | 146 to 148 °C | – | –
9 | COc1cc(NC(=O)CCCCC(=O)NO)ccc1Nc1nccc(-c2cn(C)c3ccccc23)n1 [Compound 9C, N^1-hydroxy-N^6-(3-methoxy-4-((4-(1-methyl-1H-indol-3-yl)pyrimidin-2-yl)amino)phenyl) adipamide] | – | – | – | – | – | – | 12% | 118 to 120 °C | 397 nM | –
10 | COc1cc(NC(=O)CCCCCC(=O)NO)ccc1Nc1nccc(-c2cn(C)c3ccccc23)n1 [Compound 9D, N^1-hydroxy-N^7-(3-methoxy-4-((4-(1-methyl-1H-indol-3-yl)pyrimidin-2-yl)amino)phenyl) heptanediamide] | 5110 nM | 5.64 µM | 3690 nM | 1070 nM | 4130 nM | 3620 nM | 13% | – | 121 nM | IC50 [2]: 5450 nM
11 | COc1cc(NC(=O)CCCCCCC(=O)NO)ccc1Nc1nccc(-c2cn(C)c3ccccc23)n1 [Compound 9E, N^1-hydroxy-N^8-(3-methoxy-4-((4-(1-methyl-1H-indol-3-yl)pyrimidin-2-yl)amino)phenyl) octanediamide] | 2190 nM | 1.85 µM | 600 nM | 230 nM | 790 nM | 240 nM | 15% | – | 85 nM | IC50 [8]: 5 µM; IC50 [10]: 5.7 µM; IC50 [2]: 3390 nM; Inhibition of 13 protein kinases at 100 nM [11]: no significant inhibition; LSD1 Inhibition Rate at 10 μM [12]: no significant inhibition; inhibition at 10 µM ([12]; read-out: LSD1 Inhibition Rate at 10 μM): 13%; BRD4 Inhibition Rate at 1 μM [13]: not active; inhibition at 1 µM ([13]; read-out: BRD4 Inhibition Rate at 1 μM): 0%
12 | Cn1cc(-c2ccnc(Nc3ccc(C(=O)NO)cc3)n2)c2ccccc21 [Compound 10A, N-hydroxy-4-((4-(1-methyl-1H-indol-3-yl)pyrimidin-2-yl)amino) benzamide] | – | – | – | – | – | – | 41% | 108 to 111 °C | – | –
13 | Cn1cc(-c2ccnc(Nc3ccc(C(=O)Nc4ccccc4N)cc3)n2)c2ccccc21 [Compound 10B, N-(2-aminophenyl)-4-((4-(1-methyl-1H-indol-3-yl)pyrimidin-2-yl)amino) benzamide] | – | – | – | – | – | – | 40% | 164 to 168 °C | – | –
14 | O=C(CCCCCCC(=O)Nc1ccccc1)NO [SAHA, suberoylanilide hydroxamic acid, reference compound] | 2130 nM | – | – | – | – | – | – | – | – | –
